In patent US11572369B2, “Bicyclic pyridine compositions and methods of using the same for cancer therapy” (UNIVERSITY OF SOUTH CAROLINA, priority 2019, dated 2023):

How the values were obtained:
Experiment in all cases: KINOMEscan
Format in all cases: binding
Settings in all cases: 2000 nM
[1] = target: T1, RIOK1 (Homo sapiens, UniProt Q9BRS2)
T1 construct: DNA label (qPCR read-out); purchased DiscoveRx (KINOMEscan ScanMAX panel)

[2] = target: T2, LATS2 (Homo sapiens, UniProt Q9NRM7)
T2 construct: purchased KINOMEscan (DiscoveRx) panel service

[3] = target: T3, TNNI3K (Homo sapiens, UniProt Q59H18)
T3 construct: DNA label (qPCR read-out); purchased KINOMEscan (DiscoveRx) ScanMAX panel

[4] = target: T4, DMPK2 (Homo sapiens, UniProt Q6DT37)
T4 construct: DNA label (qPCR read-out); purchased KINOMEscan (DiscoveRx) panel

[5] = target: T5, RAF1 (Homo sapiens, UniProt P04049)
T5 construct: purchased DiscoveRx (KINOMEscan scanMAX panel)

[6] = target: T6, MELK (Homo sapiens, UniProt Q14680)
T6 construct: purchased DiscoveRx (KINOMEscan scanMAX panel, service)

[7] = target: T7, PRKCI (Homo sapiens, UniProt P41743)
T7 construct: purchased DiscoveRx (KINOMEscan scanMAX panel)

[8] = target: T8, TNK1 (Homo sapiens, UniProt Q13470)
T8 construct: DNA label (qPCR read-out); purchased KINOMEscan (DiscoveRx) ScanMAX panel

[9] = target: T9, MEK6 (Homo sapiens, UniProt P52564)
T9 construct: purchased DiscoveRx (KINOMEscan scanMAX panel, service)

[10] = target: MAPKAPK5 (Homo sapiens, UniProt Q8IW41)
[11] = target: T10, NEK5 (Homo sapiens, UniProt Q6P3R8)
T10 construct: DNA label (qPCR read-out); purchased KINOMEscan (ScanMAX panel service)
T10 sequence (Q6P3R8 whole entry): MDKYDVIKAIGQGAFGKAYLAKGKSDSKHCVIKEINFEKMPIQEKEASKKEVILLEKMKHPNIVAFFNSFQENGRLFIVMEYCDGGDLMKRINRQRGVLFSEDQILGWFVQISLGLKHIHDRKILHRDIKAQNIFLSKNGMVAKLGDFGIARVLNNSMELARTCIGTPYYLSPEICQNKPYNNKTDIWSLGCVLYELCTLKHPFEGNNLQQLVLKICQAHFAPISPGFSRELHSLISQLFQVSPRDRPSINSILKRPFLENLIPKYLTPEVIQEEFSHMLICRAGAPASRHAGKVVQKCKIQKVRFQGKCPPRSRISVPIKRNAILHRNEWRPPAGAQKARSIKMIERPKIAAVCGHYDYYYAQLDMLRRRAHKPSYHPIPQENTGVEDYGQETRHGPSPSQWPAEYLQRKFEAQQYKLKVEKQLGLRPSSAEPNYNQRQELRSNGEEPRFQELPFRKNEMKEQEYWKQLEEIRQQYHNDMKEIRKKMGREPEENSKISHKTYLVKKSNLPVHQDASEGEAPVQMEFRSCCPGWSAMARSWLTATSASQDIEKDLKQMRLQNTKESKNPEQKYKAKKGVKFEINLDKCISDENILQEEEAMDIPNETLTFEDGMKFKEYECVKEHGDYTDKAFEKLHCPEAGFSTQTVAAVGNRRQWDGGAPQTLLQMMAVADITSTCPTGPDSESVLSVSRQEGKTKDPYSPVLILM

[12] = target: T11, ACVR2A (Homo sapiens, UniProt P27037)
T11 construct: purchased DiscoveRx (KINOMEscan scanMAX panel, service)

[13] = target: T12, CSNK1G3 (Homo sapiens, UniProt Q9Y6M4)
T12 construct: DNA label; purchased DiscoveRx (KINOMEscan scanMAX panel)

[14] = target: T13, HIPK3 (Homo sapiens, UniProt Q9H422)
T13 construct: DNA label (for qPCR read-out); purchased DiscoveRx (KINOMEscan scanMAX panel, contract assay)

[15] = target: T14, GRK2 (Homo sapiens, UniProt P25098)
T14 construct: DNA label (for qPCR read-out); purchased DiscoveRx (KINOMEscan scanMAX panel, contract assay)

[16] = target: T15, GCN2(Kin.Dom.2, S808G) (Homo sapiens, UniProt Q9P2K8, S808G)
T15 construct: GCN2(Kin.Dom.2, S808G); purchased KINOMEscan (DiscoveRx)

[17] = target: T16, PLK1 (Homo sapiens, UniProt P53350)
T16 construct: purchased DiscoveRx (KINOMEscan scanMAX panel)

[18] = target: T17, GSK3A (Homo sapiens, UniProt P49840)
T17 construct: DNA label (qPCR read-out); purchased DiscoverX (assay service)
T17 sequence (P49840 whole entry): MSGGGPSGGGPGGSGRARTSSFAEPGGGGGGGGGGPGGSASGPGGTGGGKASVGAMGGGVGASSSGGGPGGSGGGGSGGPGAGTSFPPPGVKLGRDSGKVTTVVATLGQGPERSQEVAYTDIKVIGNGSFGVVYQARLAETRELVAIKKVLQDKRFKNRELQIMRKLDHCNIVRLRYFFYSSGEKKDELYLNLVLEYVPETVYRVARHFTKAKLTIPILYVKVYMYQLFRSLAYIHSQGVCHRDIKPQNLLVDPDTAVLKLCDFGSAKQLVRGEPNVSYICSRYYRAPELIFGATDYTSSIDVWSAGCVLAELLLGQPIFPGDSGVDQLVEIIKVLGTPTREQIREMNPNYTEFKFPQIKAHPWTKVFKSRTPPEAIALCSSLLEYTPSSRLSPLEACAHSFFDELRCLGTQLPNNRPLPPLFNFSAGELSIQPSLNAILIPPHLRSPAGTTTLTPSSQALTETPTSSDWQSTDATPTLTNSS

[19] = target: T18, KIT(V559D, T670I) (Homo sapiens, UniProt P10721, T670I/V559D)
T18 construct: purchased KINOMEscan (DiscoveRx) panel service
T18 sequence (P10721 26-976 V559D/T670I): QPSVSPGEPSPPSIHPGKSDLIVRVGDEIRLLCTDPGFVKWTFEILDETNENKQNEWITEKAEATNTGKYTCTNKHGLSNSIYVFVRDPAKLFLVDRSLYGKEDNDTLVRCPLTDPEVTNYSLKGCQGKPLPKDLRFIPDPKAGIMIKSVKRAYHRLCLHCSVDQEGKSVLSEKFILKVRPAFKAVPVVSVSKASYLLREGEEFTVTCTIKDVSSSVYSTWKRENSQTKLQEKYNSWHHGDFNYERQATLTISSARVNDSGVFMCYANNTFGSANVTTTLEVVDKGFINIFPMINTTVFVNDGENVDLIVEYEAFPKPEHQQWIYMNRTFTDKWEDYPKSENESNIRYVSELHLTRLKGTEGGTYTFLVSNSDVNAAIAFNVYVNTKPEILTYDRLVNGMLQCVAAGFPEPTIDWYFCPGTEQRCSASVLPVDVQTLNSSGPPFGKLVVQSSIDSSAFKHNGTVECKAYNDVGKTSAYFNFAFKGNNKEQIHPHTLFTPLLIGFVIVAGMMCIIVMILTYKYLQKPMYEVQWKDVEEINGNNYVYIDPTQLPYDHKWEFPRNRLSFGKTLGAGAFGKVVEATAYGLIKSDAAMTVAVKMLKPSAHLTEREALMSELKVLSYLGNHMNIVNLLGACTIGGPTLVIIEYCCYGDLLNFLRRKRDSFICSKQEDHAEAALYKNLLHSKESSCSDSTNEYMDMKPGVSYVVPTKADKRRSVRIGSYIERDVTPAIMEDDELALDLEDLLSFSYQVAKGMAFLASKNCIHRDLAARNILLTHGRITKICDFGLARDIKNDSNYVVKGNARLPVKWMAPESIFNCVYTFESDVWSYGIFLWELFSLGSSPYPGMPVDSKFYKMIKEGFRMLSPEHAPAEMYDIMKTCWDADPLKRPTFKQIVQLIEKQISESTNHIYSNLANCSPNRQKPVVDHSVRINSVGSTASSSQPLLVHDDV

[20] = target: T19, BRAF(V600E) (Homo sapiens, UniProt P15056, V600E)
T19 construct: DNA label (for qPCR read-out); purchased KINOMEscan scanMAX panel (DiscoveRx)

[21] = target: T20, NIM1 (Homo sapiens, UniProt Q8IY84)
T20 construct: DNA label (qPCR read-out); purchased KINOMEscan (ScanMAX panel service)

[22] = target: T21, EGFR (Homo sapiens, UniProt P00533)
T21 construct: purchased DiscoveRx (KINOMEscan scanMAX panel)

[23] = target: T22, KIT(L576P) (Homo sapiens, UniProt P10721, L576P)
T22 construct: DNA label (for qPCR read-out); purchased DiscoveRx (KINOMEscan scanMAX panel)
T22 sequence (P10721 26-976 L576P): as the sequence (P10721 26-976 V559D/T670I) above, with D534V, L551P, I645T counted along it

[24] = target: T23, TNIK (Homo sapiens, UniProt Q9UKE5)
T23 construct: DNA label (qPCR read-out); purchased KINOMEscan (DiscoveRx) ScanMAX panel

[25] = target: T24, PCTK2 (Homo sapiens, UniProt Q00537)
T24 construct: purchased DiscoverX (KINOMEscan service)
T24 sequence (Q00537 whole entry): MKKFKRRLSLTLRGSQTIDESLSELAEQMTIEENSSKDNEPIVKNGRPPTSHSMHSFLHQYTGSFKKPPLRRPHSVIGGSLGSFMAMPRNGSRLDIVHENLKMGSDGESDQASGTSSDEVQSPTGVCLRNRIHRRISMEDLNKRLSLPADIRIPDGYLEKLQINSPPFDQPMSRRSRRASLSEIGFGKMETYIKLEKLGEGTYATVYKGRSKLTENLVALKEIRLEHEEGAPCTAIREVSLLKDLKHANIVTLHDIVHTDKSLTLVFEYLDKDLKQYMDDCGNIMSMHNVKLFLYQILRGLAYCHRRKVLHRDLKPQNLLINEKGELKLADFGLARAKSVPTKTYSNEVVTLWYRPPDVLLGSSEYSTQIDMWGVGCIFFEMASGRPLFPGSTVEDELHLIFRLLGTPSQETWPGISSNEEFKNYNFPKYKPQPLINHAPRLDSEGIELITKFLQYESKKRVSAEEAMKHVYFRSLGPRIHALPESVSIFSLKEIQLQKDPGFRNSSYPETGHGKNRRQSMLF

[26] = target: T25, KIT(A829P) (Homo sapiens, UniProt P10721, A829P)
T25 construct: DNA label (for qPCR read-out); purchased DiscoveRx (KINOMEscan scanMAX panel)
T25 sequence (P10721 26-976 A829P): as the sequence (P10721 26-976 V559D/T670I) above, with D534V, I645T, A804P counted along it

[27] = target: T26, BMPR1A (Homo sapiens, UniProt P36894)
T26 construct: DNA label (for qPCR read-out); purchased KINOMEscan scanMAX panel (DiscoveRx)
T26 sequence (P36894 24-532): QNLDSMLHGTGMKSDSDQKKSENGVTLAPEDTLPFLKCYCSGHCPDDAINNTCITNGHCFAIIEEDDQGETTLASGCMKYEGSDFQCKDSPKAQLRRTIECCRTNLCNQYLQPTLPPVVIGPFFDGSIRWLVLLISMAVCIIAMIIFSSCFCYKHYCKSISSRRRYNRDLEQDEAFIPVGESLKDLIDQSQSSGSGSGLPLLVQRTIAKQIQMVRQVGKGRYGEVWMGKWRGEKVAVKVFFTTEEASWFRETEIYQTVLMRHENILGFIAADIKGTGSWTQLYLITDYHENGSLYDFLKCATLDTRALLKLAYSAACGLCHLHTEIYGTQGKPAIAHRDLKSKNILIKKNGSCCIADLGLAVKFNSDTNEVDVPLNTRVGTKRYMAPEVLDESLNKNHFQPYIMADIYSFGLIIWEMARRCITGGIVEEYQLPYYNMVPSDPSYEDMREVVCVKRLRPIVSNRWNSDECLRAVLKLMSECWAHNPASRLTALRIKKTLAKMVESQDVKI

[28] = target: T27, AMPK-alpha1 (Homo sapiens, UniProt Q13131)
T27 construct: DNA label (qPCR read-out); purchased KINOMEscan scanMAX panel (DiscoveRx)

[29] = target: T28, MAP3K1 (Homo sapiens, UniProt Q13233)
T28 construct: DNA label (qPCR read-out); purchased DiscoverX (KINOMEscan service)
T28 sequence (Q13233 whole entry): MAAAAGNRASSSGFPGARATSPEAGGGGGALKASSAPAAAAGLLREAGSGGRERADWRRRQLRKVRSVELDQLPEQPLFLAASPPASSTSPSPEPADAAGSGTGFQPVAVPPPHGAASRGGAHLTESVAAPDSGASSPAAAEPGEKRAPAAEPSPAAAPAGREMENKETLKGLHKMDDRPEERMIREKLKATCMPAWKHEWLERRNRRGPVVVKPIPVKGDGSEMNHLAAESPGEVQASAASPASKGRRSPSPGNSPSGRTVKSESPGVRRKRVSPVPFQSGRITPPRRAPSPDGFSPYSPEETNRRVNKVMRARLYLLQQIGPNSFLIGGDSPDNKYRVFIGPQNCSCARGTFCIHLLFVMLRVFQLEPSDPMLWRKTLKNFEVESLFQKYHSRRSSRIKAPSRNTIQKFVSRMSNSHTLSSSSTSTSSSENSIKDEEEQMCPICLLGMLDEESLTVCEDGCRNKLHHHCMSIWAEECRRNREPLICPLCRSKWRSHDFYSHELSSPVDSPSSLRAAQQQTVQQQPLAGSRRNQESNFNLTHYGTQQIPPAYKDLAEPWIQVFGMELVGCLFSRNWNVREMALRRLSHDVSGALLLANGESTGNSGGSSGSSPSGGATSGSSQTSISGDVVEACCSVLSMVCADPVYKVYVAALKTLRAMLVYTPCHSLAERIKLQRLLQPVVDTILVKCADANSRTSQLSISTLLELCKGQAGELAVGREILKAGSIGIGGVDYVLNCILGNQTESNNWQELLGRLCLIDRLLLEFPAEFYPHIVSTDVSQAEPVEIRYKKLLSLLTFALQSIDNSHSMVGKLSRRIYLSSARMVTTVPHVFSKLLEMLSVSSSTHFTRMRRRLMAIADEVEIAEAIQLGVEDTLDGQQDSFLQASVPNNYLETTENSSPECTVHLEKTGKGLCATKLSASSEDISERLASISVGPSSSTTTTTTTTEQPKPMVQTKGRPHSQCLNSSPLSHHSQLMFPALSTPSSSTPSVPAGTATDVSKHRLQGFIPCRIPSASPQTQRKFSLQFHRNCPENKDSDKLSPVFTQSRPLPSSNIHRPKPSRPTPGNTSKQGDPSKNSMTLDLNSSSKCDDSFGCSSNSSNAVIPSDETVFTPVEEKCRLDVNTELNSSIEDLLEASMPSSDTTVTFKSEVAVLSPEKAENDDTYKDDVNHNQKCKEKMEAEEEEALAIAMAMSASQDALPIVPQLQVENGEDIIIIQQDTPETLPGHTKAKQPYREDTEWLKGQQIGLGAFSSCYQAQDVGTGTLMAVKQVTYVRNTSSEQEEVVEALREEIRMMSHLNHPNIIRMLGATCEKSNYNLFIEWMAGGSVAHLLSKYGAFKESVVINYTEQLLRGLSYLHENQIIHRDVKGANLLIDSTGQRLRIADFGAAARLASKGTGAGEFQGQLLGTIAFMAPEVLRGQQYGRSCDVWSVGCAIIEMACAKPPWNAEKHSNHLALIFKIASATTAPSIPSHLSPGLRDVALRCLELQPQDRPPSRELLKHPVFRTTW

[30] = target: T29, PKMYT1 (Homo sapiens, UniProt Q99640)
T29 construct: DNA label (qPCR read-out); purchased KINOMEscan (DiscoveRx) panel

[31] = target: T30, MINK (Homo sapiens, UniProt Q8N4C8)
T30 construct: DNA label (qPCR read-out); purchased KINOMEscan scanMAX panel (DiscoveRx)

[32] = target: T31, RIPK4 (Homo sapiens, UniProt P57078)
T31 construct: DNA label (qPCR read-out); purchased DiscoveRx (KINOMEscan ScanMAX panel)

[33] = target: T32, JAK3(JH1domain-catalytic) (Homo sapiens, UniProt P52333)
T32 construct: JAK3(JH1domain-catalytic); DNA label (for qPCR read-out); purchased DiscoveRx (KINOMEscan scanMAX panel)
T32 sequence (P52333 822-1111 limits assumed): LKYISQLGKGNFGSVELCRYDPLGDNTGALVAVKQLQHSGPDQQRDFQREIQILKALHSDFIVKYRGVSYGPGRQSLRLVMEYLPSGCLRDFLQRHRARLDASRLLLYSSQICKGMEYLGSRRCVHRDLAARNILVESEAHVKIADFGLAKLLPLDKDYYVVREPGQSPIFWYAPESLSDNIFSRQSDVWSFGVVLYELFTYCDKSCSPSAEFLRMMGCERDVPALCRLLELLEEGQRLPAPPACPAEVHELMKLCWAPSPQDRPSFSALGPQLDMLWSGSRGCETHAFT

[34] = target: T33, CDK4-cyclinD1 (Homo sapiens, UniProt P11802)
T33 construct: purchased DiscoverX (KINOMEscan service)

| Compound | % Ctrl [1] | % Ctrl [2] | % Ctrl [3] | % Ctrl [4] | % Ctrl [5] | % Ctrl [6] | % Ctrl [7] | % Ctrl [8] | % Ctrl [9] | % Ctrl [10] | % Ctrl [11] | % Ctrl [12] | % Ctrl [13] | % Ctrl [14] | % Ctrl [15] | % Ctrl [16] | % Ctrl [17] | % Ctrl [18] | % Ctrl [19] | % Ctrl [20] | further results |
| --- | --- | --- | --- | --- | --- | --- | --- | --- | --- | --- | --- | --- | --- | --- | --- | --- | --- | --- | --- | --- | --- |
| CN(C)C(=O)c1ccc(N2CCCN(c3ccnc4sc(C(N)=O)c(N)c34)CC2)cc1 [15u, 3-amino-4-(4-(4-(dimethylcarbamoyl)phenyl)-1,4-diazepan-1-yl)thieno[2,3-b]pyridine-2-carboxamide] | 100 % Ctrl | 94 % Ctrl | 100 % Ctrl | 93 % Ctrl | 97 % Ctrl | 75 % Ctrl | 100 % Ctrl | 100 % Ctrl | 100 % Ctrl | 100 % Ctrl | 94 % Ctrl | 95 % Ctrl | 95 % Ctrl | 77 % Ctrl | 88 % Ctrl | 73 % Ctrl | 95 % Ctrl | 31 % Ctrl | 100 % Ctrl | 100 % Ctrl | % Ctrl [21]: 56 % Ctrl; % Ctrl [22]: 100 % Ctrl; % Ctrl [23]: 96 % Ctrl; % Ctrl [24]: 100 % Ctrl; % Ctrl [25]: 62 % Ctrl; % Ctrl [26]: 97 % Ctrl; % Ctrl [27]: 100 % Ctrl; % Ctrl [28]: 100 % Ctrl; % Ctrl [29]: 84 % Ctrl; % Ctrl [30]: 91 % Ctrl; % Ctrl [31]: 100 % Ctrl; % Ctrl [32]: 89 % Ctrl; % Ctrl [33]: 83 % Ctrl; % Ctrl [34]: 94 % Ctrl |
| [2H]C([2H])([2H])N(C(=O)c1ccc(N2CCCN(c3ccnc4sc(C(N)=O)c(N)c34)CC2)cc1)C([2H])([2H])[2H] [15u_D6, 3-amino-4-(4-(4-(bis(methyl-d3)carbamoyl)phenyl)-1,4-diazepan-1-yl)thieno[2,3-b]pyridine-2-carboxamide] | 100 % Ctrl | 31 % Ctrl | 100 % Ctrl | 94 % Ctrl | 100 % Ctrl | 84 % Ctrl | 100 % Ctrl | 100 % Ctrl | 96 % Ctrl | 64 % Ctrl | 100 % Ctrl | 92 % Ctrl | 80 % Ctrl | 81 % Ctrl | 70 % Ctrl | 88 % Ctrl | 89 % Ctrl | 34 % Ctrl | 96 % Ctrl | 84 % Ctrl | % Ctrl [21]: 78 % Ctrl; % Ctrl [22]: 87 % Ctrl; % Ctrl [23]: 75 % Ctrl; % Ctrl [24]: 91 % Ctrl; % Ctrl [25]: 100 % Ctrl; % Ctrl [26]: 51 % Ctrl; % Ctrl [27]: 100 % Ctrl; % Ctrl [28]: 100 % Ctrl; % Ctrl [29]: 90 % Ctrl; % Ctrl [30]: 94 % Ctrl; % Ctrl [31]: 87 % Ctrl; % Ctrl [32]: 68 % Ctrl; % Ctrl [33]: 80 % Ctrl; % Ctrl [34]: 96 % Ctrl |
